Measured values reported in PMC13397332 (Biochimica et biophysica acta. Proteins and proteomics, 2025).

Molecular target: T1, OrnR (STM OrnR, ornithine racemase) (Salmonella enterica, UniProt Q8ZNC6)
T1 sequence (Q8ZNC6 1-367): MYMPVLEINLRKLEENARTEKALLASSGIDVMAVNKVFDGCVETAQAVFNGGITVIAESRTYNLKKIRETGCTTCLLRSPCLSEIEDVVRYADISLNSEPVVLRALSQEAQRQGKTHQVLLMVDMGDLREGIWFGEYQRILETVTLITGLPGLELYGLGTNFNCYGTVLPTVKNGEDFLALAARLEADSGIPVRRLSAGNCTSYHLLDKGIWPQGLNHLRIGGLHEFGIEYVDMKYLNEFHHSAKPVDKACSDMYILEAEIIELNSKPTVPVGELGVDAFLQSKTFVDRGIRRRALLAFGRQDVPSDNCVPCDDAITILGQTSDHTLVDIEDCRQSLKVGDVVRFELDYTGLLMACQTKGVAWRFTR
Details: read-out: S0.5; D to L direction, pH 9.2, 37 °C, 0.8 mM PLP; sigmoid, Hill fit

- Km: 12.8 ± 2.7 mM
SMILES: NCCC[C@@H](N)C(=O)O [D-ornithine]
